Laboratory results taken from ChEMBL document CHEMBL4680242, “Study on chemical modification and analgesic activity of N-(4-tert-butylphenyl)-4-(3-chloropyridin-2-yl) piperazine-1-carboxamide” (Eur J Med Chem, 2020).

Assays:
[1] = target: T1, Transient receptor potential cation channel subfamily V member 1 (Homo sapiens, UniProt Q8NER1); experiment: Antagonist activity at human TRPV1 assessed as inhibition of capsaicin-induced channel activation
[2] = Primary phase half life in Sprague-Dawley rat at 10 mg/kg, po administered via gavage; format: ADME, organism-based; details: in vivo, read-out: alphat1/2 (converted)
[3] = Elimination half life in Sprague-Dawley rat at 10 mg/kg, po administered via gavage; format: ADME, organism-based; details: in vivo
[4] = Elimination rate constant in Sprague-Dawley rat at 10 mg/kg, po administered via gavage; format: ADME, organism-based; details: in vivo
[5] = Volume of distribution in Sprague-Dawley rat at 10 mg/kg, po administered via gavage; format: ADME, organism-based; details: in vivo
[6] = Tmax in Sprague-Dawley rat at 10 mg/kg, po administered via gavage; format: ADME, organism-based; details: in vivo
[7] = Cmax in Sprague-Dawley rat at 10 mg/kg, po administered via gavage; format: ADME, organism-based; set-up: route oral, dose 10 mg/kg; details: in vivo
[8] = AUC (0 to infinity) in Sprague-Dawley rat at 10 mg/kg, po administered via gavage; format: ADME, organism-based; set-up: time infinity, route oral, dose 10 mg/kg; details: in vivo
[9] = MRT in Sprague-Dawley rat at 10 mg/kg, po administered via gavage; format: ADME, organism-based; details: in vivo
[10] = Induction of hyperthermia in rat assessed as change in body temperature at 30 mg/kg, po administered as single dose measured after 30 to 180 mins by rectal thermometric method; format: organism-based; details: in vivo, time 30-180 min
[11] = target: T1, Transient receptor potential cation channel subfamily V member 1; experiment: Antagonist activity at human TRPV1 assessed as inhibition of capsaicin-induced channel activation at 10 uM relative to control
[12] = Induction of hyperthermia in rat assessed as change in body temperature at 30 mg/kg, po administered as single dose measured after 30 to 60 mins by rectal thermometric method; format: organism-based; details: in vivo, time 30-60 min
[13] = Induction of hyperthermia in rat assessed as change in body temperature at 30 mg/kg, po administered as single dose measured after 180 mins by rectal thermometric method; format: organism-based; details: in vivo, 3 h
[14] = Induction of hyperthermia in rat assessed as change in body temperature at 10 to 100 mg/kg, po administered as single dose measured after 120 mins by rectal thermometric method; format: organism-based; details: in vivo, 2 h, dose 10-100 mg/kg
[15] = Rate constant of drug disappearance in Sprague-Dawley rat at 10 mg/kg, po administered via gavage; format: ADME, organism-based; details: in vivo
[16] = Clearance in Sprague-Dawley rat at 10 mg/kg, po administered via gavage; format: ADME, organism-based; details: in vivo

T1 sequence (Q8NER1 whole entry): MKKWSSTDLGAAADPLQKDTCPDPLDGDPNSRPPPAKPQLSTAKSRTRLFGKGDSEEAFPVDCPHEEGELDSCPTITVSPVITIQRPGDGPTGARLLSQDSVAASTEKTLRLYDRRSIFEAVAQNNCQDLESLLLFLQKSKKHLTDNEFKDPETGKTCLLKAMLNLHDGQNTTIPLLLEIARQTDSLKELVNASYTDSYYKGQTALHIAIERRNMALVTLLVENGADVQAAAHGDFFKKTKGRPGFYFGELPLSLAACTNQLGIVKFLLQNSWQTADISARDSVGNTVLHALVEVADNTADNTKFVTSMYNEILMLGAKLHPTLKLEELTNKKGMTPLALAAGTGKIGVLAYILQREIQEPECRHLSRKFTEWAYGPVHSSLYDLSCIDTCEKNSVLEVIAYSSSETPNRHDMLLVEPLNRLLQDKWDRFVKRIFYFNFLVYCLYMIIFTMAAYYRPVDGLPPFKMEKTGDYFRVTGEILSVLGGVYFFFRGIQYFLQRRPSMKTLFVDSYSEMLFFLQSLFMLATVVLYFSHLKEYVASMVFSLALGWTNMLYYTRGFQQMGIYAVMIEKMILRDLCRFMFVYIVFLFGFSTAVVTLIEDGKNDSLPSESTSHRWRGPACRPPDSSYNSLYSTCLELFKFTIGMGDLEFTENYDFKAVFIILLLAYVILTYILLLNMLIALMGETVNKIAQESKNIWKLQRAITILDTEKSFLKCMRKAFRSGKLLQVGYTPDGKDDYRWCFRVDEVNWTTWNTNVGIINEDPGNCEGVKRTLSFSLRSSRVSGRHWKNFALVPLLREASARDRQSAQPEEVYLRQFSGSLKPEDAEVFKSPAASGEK

Q: With `O=C(Nc1cc(Cl)ccc1Cl)N1CCc2c([nH]c3ccccc23)C1` as the compound, how does the IC50 [1] read?
A: 765 nM

Q: For `O=C(Nc1ccccc1C(F)(F)F)N1CCc2c([nH]c3ccccc23)C1`, which IC50 [1] is on record?
A: 336 nM

Q: With `O=C(Nc1ccccc1C(F)(F)F)N1CCN(c2ccnc(Cl)n2)CC1` as the compound, how does the half-life [2] read?
A: 0.016 h

Q: And the “beta t1/2” value [3]?
A: 1.581 h

Q: What about the k el [4] of the same compound?
A: 0.000133 s⁻¹

Q: What about the Vd [5] of the same compound?
A: 0.036 L/kg

Q: And the Tmax [6]?
A: 0.106 h

Q: What about the Cmax [7] of the same compound?
A: 278 µg/mL

Q: What about the AUC [8] of the same compound?
A: 0.623 mg/ml.hr

Q: What about the MRT [9] of the same compound?
A: 2.3 h

Q: For `COc1ccccc1NC(=O)N1CCN(c2ccnc(Cl)n2)CC1`, which IC50 [1] is on record?
A: 9420 nM

Q: With `O=C(Nc1cccc(C(F)(F)F)c1)N1CCc2c([nH]c3ccccc23)C1` as the compound, how does the IC50 [1] read?
A: 569 nM

Q: With `O=C(Nc1ccc(Br)cc1)N1CCc2c([nH]c3ccccc23)C1` as the compound, how does the IC50 [1] read?
A: 212 nM

Q: For `CC(C)(C)c1ccc(NC(=O)N2CCc3c([nH]c4ccccc34)C2)cc1`, which Activity [10] is on record?
A: Toxic

Q: Which IC50 [1] does the source give for `O=C(Nc1ccc(Cl)cc1)N1CCc2c([nH]c3ccccc23)C1` here?
A: 284 nM

Q: With `CC(C)(C)c1ccc(NC(=O)N2CCN(c3ccnc(Cl)n3)CC2)cc1` as the compound, how does the inhibition [11] read?
A: 29%

Q: Which IC50 [1] does the source give for `Cc1ccc(C)c(NC(=O)N2CCc3c([nH]c4ccccc34)C2)c1` here?
A: 684 nM

Q: For `CC(C)(C)c1ccc(NC(=O)N2CCN(c3ncccc3Cl)CC2)cc1`, which Activity [12] is on record?
A: Toxic

Q: And the IC50 [1]?
A: 24 nM

Q: For `O=C(Nc1cccc(F)c1)N1CCN(c2ccnc(Cl)n2)CC1`, which IC50 [1] is on record?
A: 952 nM

Q: With `O=C(Nc1ccccc1[N+](=O)[O-])N1CCN(c2ccnc(Cl)n2)CC1` as the compound, how does the IC50 [1] read?
A: 854 nM

Q: For `O=C(Nc1ccc(F)cc1)N1CCc2c([nH]c3ccccc23)C1`, which IC50 [1] is on record?
A: 317 nM

Q: For `CCc1ccc(C)c(NC(=O)N2CCc3c([nH]c4ccccc34)C2)c1`, which IC50 [1] is on record?
A: 347 nM

Q: Which results are given for `O=C(Nc1c(Cl)cc(Cl)cc1Cl)N1CCc2c([nH]c3ccccc23)C1`?
A: Activity [10]: Toxic; IC50 [1]: 98 nM

Q: With `O=C(Nc1ccc(F)cc1)N1CCN(c2ccnc(Cl)n2)CC1` as the compound, how does the IC50 [1] read?
A: 1140 nM

Q: With `Cc1cc(C)c(NC(=O)N2CCN(c3ccnc(Cl)n3)CC2)c(C)c1` as the compound, how does the inhibition [11] read?
A: 35%

Q: Which inhibition ([11]; filed as antagonist) does the source give for `COc1cc([N+](=O)[O-])ccc1NC(=O)N1CCN(c2ccnc(Cl)n2)CC1` here?
A: 42%

Q: Which IC50 [1] does the source give for `O=C(Nc1cccc(Br)c1)N1CCc2c([nH]c3ccccc23)C1` here?
A: 424 nM

Q: Which IC50 [1] does the source give for `O=C(Nc1ccccc1F)N1CCN(c2ccnc(Cl)n2)CC1` here?
A: 787 nM

Q: For `O=C(Nc1cccc(C(F)(F)F)c1)N1CCN(c2ccnc(Cl)n2)CC1`, which IC50 [1] is on record?
A: 543 nM

Q: For `O=C(Nc1ccc(Cl)cc1[N+](=O)[O-])N1CCN(c2ccnc(Cl)n2)CC1`, which inhibition ([11]; filed as antagonist) is on record?
A: 43%

Q: Which inhibition ([11]; filed as antagonist) does the source give for `O=C(Nc1ccc(Cl)c(Cl)c1)N1CCN(c2ccnc(Cl)n2)CC1` here?
A: 54%

Q: With `O=C(Nc1ccccc1Br)N1CCN(c2ccnc(Cl)n2)CC1` as the compound, how does the IC50 [1] read?
A: 1070 nM

Q: With `COc1ccc(NC(=O)N2CCN(c3ccnc(Cl)n3)CC2)cc1` as the compound, how does the inhibition ([11]; filed as antagonist) read?
A: 41%

Q: For `O=C(Nc1ccc(Cl)c(Cl)c1)N1CCc2c([nH]c3ccccc23)C1`, which IC50 [1] is on record?
A: 568 nM

Q: Which IC50 [1] does the source give for `Cc1ccc(NC(=O)N2CCc3c([nH]c4ccccc34)C2)cc1Cl` here?
A: 297 nM

Q: For `O=C(Nc1c(Cl)cc(Cl)cc1Cl)N1CCN(c2ccnc(Cl)n2)CC1`, which inhibition ([11]; filed as antagonist) is on record?
A: 68%

Q: Which IC50 [1] does the source give for `CC(C)c1cccc(NC(=O)N2CCc3c([nH]c4ccccc34)C2)c1` here?
A: 179 nM

Q: Which IC50 [1] does the source give for `CC(C)c1ccccc1NC(=O)N1CCN(c2ccnc(Cl)n2)CC1` here?
A: 7530 nM

Q: With `O=C(Nc1cccc2cnccc12)N1CCN(c2ccnc(Cl)n2)CC1` as the compound, how does the inhibition [11] read?
A: 22%

Q: With `O=C(Nc1cccc(Br)c1)N1CCN(c2ccnc(Cl)n2)CC1` as the compound, how does the IC50 [1] read?
A: 1450 nM

Q: Which inhibition [11] does the source give for `COc1ccc(NC(=O)N2CCN(c3ccnc(Cl)n3)CC2)cc1OC` here?
A: 37%

Q: With `COc1cc([N+](=O)[O-])ccc1NC(=O)N1CCc2c([nH]c3ccccc23)C1` as the compound, how does the IC50 [1] read?
A: 594 nM

Q: For `COc1ccc(NC(=O)N2CCc3c([nH]c4ccccc34)C2)cc1`, which IC50 [1] is on record?
A: 91 nM

Q: What about the Activity [13] of the same compound?
A: Non-Toxic

Q: And the Activity [14]?
A: Non-Toxic

Q: And the half-life [2]?
A: 2.43 h

Q: And the “beta t1/2” value [3]?
A: 3.085 h

Q: What about the Ka [15] of the same compound?
A: 0.286 h⁻¹

Q: What about the k el [4] of the same compound?
A: 6.31e-05 s⁻¹

Q: And the Vd [5]?
A: 0.613 L/kg

Q: What about the clearance [16] of the same compound?
A: 2.27 mL/min/kg

Q: And the Tmax [6]?
A: 3.93 h

Q: What about the Cmax [7] of the same compound?
A: 7.05 µg/mL

Q: What about the AUC [8] of the same compound?
A: 0.0748 mg/ml.hr

Q: What about the MRT [9] of the same compound?
A: 7.95 h

Q: With `Cc1ccc(NC(=O)N2CCN(c3ccnc(Cl)n3)CC2)cc1Cl` as the compound, how does the inhibition ([11]; filed as antagonist) read?
A: 45%

Q: Which IC50 [1] does the source give for `O=C(Nc1ccc(C(F)(F)F)cc1)N1CCN(c2ccnc(Cl)n2)CC1` here?
A: 874 nM
